Square brackets hold non-standard residues; d marks the D form. Peptide text beside a SMILES is read from it. * marks the point of attachment. Hexanoyl = CCCCCC(=O)*; Ahx = NCCCCCC(=O)O
Columns and labels:
[1] = Short duration safety studies; assay type: in vivo
Description: This is unsurprising since oncogenesis requires multiple mutations including both oncogene induction and tumor suppressor attenuation. Accordingly, Dihexa, as utilized herein, can also be delivered locally via intratympanic membrane injection of a Dihexa-containing hydrogel (e.g., Salt et al., 2011; Wang et al., 2011) as a way of the proof-of-principle that Dihexa is robustly otoprotective in for example, but not limited to, pre-clinical models.

rat dementia model = details: in vivo administration (McCoy et al., 2013; unpublished data); cited from earlier work
[2] = system: rat Parkinson's Disease model; details: in vivo administration (McCoy et al., 2013; unpublished data); cited from earlier work
[3] = system: zebrafish lateral line hair cells; assay: Protection of zebrafish lateral line hair cells from aminoglycoside toxicity (hair cell survival); assay type: in vivo; details: for hair cell survival rate: 1 μM Dihexa
Description: The data is presented as mean+1 standard deviation (s.d.) ***p<0.005. ****p<0.001, with the number of stars being the confidence for the measurements and the p (i.e., p-value) being the probability of obtaining a test statistic result at least as extreme as the one that was actually observed. It is to be appreciated the differences are considered significant at P<0.05. Note also that the 0 Dihexa concentration levels in FIG. 1 and FIG. 2 are control levels no protective Dihexa was introduced as just Neomycin and Gentamicin is present in the hair cells.
Such an example method of operation can be enabled by providing Dihexa concentrations for each ototoxin. […] Toxin concentrations and treatment times are selected so that in each case, a range of about 60% up to about 80% hair cell loss is achieved, sufficient to robustly detect protection. While the methodology described above provides desirable information for a variety of ototoxins, the Dihexa-mediated protection for neomycin, gentamicin, and kanamycin, as enabled herein, is the most desirable because these three antibiotics activate partially independent cell death pathways, such that a single compound may not universally protect hair cells from aminoglycoside toxicity (Owens et al., 2009; Coffin et al., 2009; Vlasits et al., 2012; Coffin et al., 2013).
As part of the analysis process, after treatment, hair cell survival is more often quantitatively assessed by labeling with either the vital dye DASPEI for assessment in live, anesthetized fish, or with an antibody to parvalbumin for quantification in fixed tissue (Harris et al., 2003; Owens et al., 2009; Coffin et al., 2009, 2013). DASPEI allows for rapid assessment with minimal tissue processing time, while immunofluorescence is used to validate DASPEI assessment scores. Labeled hair cells are thereafter viewed using fluorescence microscopy and quantified as described in the published literature (e.g., Harris et al., 2003; Coffin et al., 2009, 2013). […]

rats = details: in vivo in rats (Owens et al., 2008, Rubel et al., 2011); cited from earlier work

| SMILES | neoplastic induction [1] | toxicity [1] | symptoms in rat dementia model (rat dementia model) | symptoms in rat Parkinson's Disease model [2] | protection from Neomycin-induced hair cell death ([3]; 1 μM Dihexa across Neomycin dose levels, FIG. 3) | hair cell survival rate ([3]; 50 μM Gentamycin toxicity, FIG. 2) | hair cell survival rate ([3]; 200 μM Neomycin toxicity, FIG. 1) | protection from aminoglycosides (rats) |
| --- | --- | --- | --- | --- | --- | --- | --- | --- |
| CCCCCC(=O)N[C@@H](Cc1ccc(O)cc1)C(=O)N[C@H](C(=O)NCCCCCC(N)=O)[C@@H](C)CC [Dihexa] (Hexanoyl-Tyr-Ile-[Ahx]-NH2) | lack of neoplastic induction | no apparent toxicity | significantly attenuates symptoms | significantly attenuates symptoms | robust protection | greater than 40% | greater than 60% | – |
| CCN1CCc2c(sc(NC(=O)Nc3ccc(Cl)cc3)c2C(N)=O)C1 [PROTO-1] | – | – | – | – | – | – | – | confers protection |
